# Measured values taken from patent publication US5861395A, “Compounds useful for inhibition of farnesyl proteins transferase” (Schering Corporation, priority 1997, dated 1999).
# pIC50: −log10 of the molar value.
# Columns and labels:
# [1] = target: farnesyl protein transferase; test: FPT IC50 (inhibition of farnesyl protein transferase, in vitro enzyme assay); assay type: biochemical
# Excerpt: In Table 2 "Ex. No." stands for "Example Number". In Table 2, FPT IC50 results are less indicated otherwise.
# COS Cell = COS Cell IC50 (Cell-Based Assay)
# Experimental: FPT IC50 (inhibition of farnesyl protein transferase, in vitro enzyme assay), GGPT IC50 (inhibition of geranylgeranyl protein transferase, in vitro enzyme assay) and COS Cell IC50 (Cell-Based Assay) were determined following the assay procedures described in WO 95/10516, published Apr. 20, 1995. Cell Mat Assay, and anti-tumor activity (in vivo anti-tumor studies) could be determined by the assay procedures described in WO 95/10516. The disclosure of WO 95/10516 is incorporated herein by reference thereto.
# Human tumor cells = test: Soft Agar Assay (anchorage-independent growth); assay type: cell-based; conditions: Table 4, colonies after 10-16 days at 37° C.
# Experimental: Soft Agar Assay: Anchorage-independent growth is a characteristic of tumorigenic cell lines. Human tumor cells are suspended in growth medium containing 0.3% agarose and an indicated concentration of a farnesyl transferase inhibitor. The solution is overlayed onto growth medium solidified with 0.6% agarose containing the same concentration of farnesyl transferase inhibitor as the top layer. After the top layer is solidified, plates are incubated for 10-16 days at 37° C. under 5% CO2 to allow colony outgrowth. […] Colonies can be counted and the IC50 's can be determined.
Structure (SMILES),pIC50 ([1]; Table 2),pIC50 ([1]; Table 3),pIC50 (Human tumor cells; Homo sapiens),pIC50 (COS Cell; Table 4),also measured
"N#CNC(=N)N1CCC(CC(=O)N2CCN(C3c4ccc(Cl)cc4CCc4cc(Br)cnc43)CC2)CC1 (centres unmarked) [Example 2, 4-[2-[4-(3-BROMO-8-CHLORO-6,11-DIHYDRO-5 H-BENZO[5,6]CYCLOHEPTA[1,2-b]PYRIDIN-11-YL)-1-PIPERAZINYL]-2-OXOETHYL]-N-CYANO-1-PIPERIDINE-CARBOXIMIDAMIDE]",7.00,–,–,–,–
"NC(=NO)N1CCC(CC(=O)N2CCN(C3c4ccc(Cl)cc4CCc4cc(Br)cnc43)CC2)CC1 (centres unmarked) [Example 11, 4-[2-[4-(3-BROMO-8-CHLORO-6,11-DIHYDRO-5 H-BENZO[5,6CYCLOHEPTA[1,2-b]PYRIDIN-11-YL-1-PIPERAZINYL]-2-OXOETHYL]-N-HYDROXY-1-PIPERIDINE-CARBOXIMIDATE]",7.24,–,–,–,–
"N=C(NS(N)(=O)=O)N1CCC(CC(=O)N2CCN(C3c4ccc(Cl)cc4CCc4cc(Br)cnc43)CC2)CC1 (centres unmarked) [Example 6, 4-[2-[4-(3-BROMO-8-CHLORO-6,11-DIHYDRO-5H-BENZO[5,6]CYCLOHEPTA[1,2-b]PYRIDIN-11-YL)-1-PIPERAZINYL]2-OXOETHYL]-N-SULFAMOYL-1-PIPERIDINE-CARBOXIMIDAMIDE]",6.92,–,–,–,–
O=C(CC1CCN(C(=O)[C@H]2CC[C@@H](O)CC2)CC1)N1CCC([C@H]2c3ncc(Br)cc3CCc3cc(Cl)cc(Br)c32)CC1 [Compound 73.0-B],–,8.35,6.44,7.62,–
O=C(NC(=O)C(Cl)(Cl)Cl)O[C@H]1CC[C@@H](C(=O)N2CCC(CC(=O)N3CCC([C@H]4c5ncc(Br)cc5CCc5cc(Cl)cc(Br)c54)CC3)CC2)CC1 [Compound 93.0-B],–,8.24,6.39,7.52,–
O=C(O)c1cncc(C(=O)N2CCC(CC(=O)N3CCC([C@H]4c5ncc(Br)cc5CCc5cc(Cl)cc(Br)c54)CC3)CC2)c1 [Compound 25.0-B],–,9.10,< 6.30,< 6.00,–
O=C(CC1CCN(C(=O)[C@@H]2CSCN2)CC1)N1CCC([C@H]2c3ncc(Br)cc3CCc3cc(Cl)cc(Br)c32)CC1 [Compound 80.0-B],–,8.59,< 6.30,–,–
O=C(CC1CCN(C(=O)c2ccc(O)nc2)CC1)N1CCC([C@@H]2c3c(Br)cc(Cl)cc3CCc3cc(Br)c[n+]([O-])c32)CC1 [Compound 91.0-B],–,8.60,< 6.30,6.30,–
N#CN1CCC(CC(=O)N2CCC([C@H]3c4ncc(Br)cc4CCc4cc(Cl)cc(Br)c43)CC2)CC1 [Example 26],8.64,–,–,–,pIC50 (COS Cell; Table 2): 7.92
O=C(CC1CCN(C(=O)c2ccc(O)nc2)CC1)N1CCC([C@H]2c3ncc(Br)cc3CCc3cc(Cl)cc(Br)c32)CC1 [Compound 47.0-B],–,8.54,6.35,7.46,–
NC(=O)c1cncc(C(=O)N2CCC(CC(=O)N3CCC([C@H]4c5ncc(Br)cc5CCc5cc(Cl)cc(Br)c54)CC3)CC2)c1 [Compound 29.0-B],–,8.66,6.30,7.68,–
O=C1NC[C@@H](C(=O)N2CCC(CC(=O)N3CCC([C@H]4c5ncc(Br)cc5CCc5cc(Cl)cc(Br)c54)CC3)CC2)N1 [Compound 15.0-B],–,8.70,6.55,7.48,pIC50 (Human tumor cells): 6.43
N=C(N)N1CCC(CC(=O)N2CCC(C3c4ccc(Cl)c(Br)c4CCc4cc(Br)cnc43)CC2)CC1 (centres unmarked) [Example 28],7.64,–,–,–,"inhibition at 1 µM (COS Cell; @ 1 μM, Table 2): 0%"
O=C1C[C@@H](C(=O)N2CCC(CC(=O)N3CCC([C@H]4c5ncc(Br)cc5CCc5cc(Cl)cc(Br)c54)CC3)CC2)NC(=O)N1 [Compound 78.0-B],–,8.59,6.77,7.52,–
N=C(Oc1ccccc1)N1CCC(CC(=O)N2CCC(C3c4ccc(Cl)c(Br)c4CCc4cc(Br)cnc43)CC2)CC1 (centres unmarked) [Example 27],7.41,–,–,–,–
O=C1N[C@H](C(=O)N2CCC(CC(=O)N3CCC([C@H]4c5ncc(Br)cc5CCc5cc(Cl)cc(Br)c54)CC3)CC2)CO1 [Compound 28.0-B],–,8.64,6.92,8.15,–
"NC(=O)NC(=O)N=C(Oc1ccccc1)N1CCC(CC(=O)N2CCN(C3c4ccc(Cl)cc4CCc4cc(Br)cnc43)CC2)CC1 (centres unmarked) [Example 13, PHENYL N- [[(AMINOCARBONYL)AMINO]CARBONYL]4-[2-[4-(3-BROMO-8-CHLORO-6,11-DIHYDRO-5 H-BENZO[5,6CYCLOHEPTA-[1,2-b]PYRIDIN-11-YL)-1-PIPERAZINYL]-2-OXOETHYL]-1-PIPERIDINECARBOXIMIDATE]",6.85,–,–,–,–
N#CN1CCC(CC(=O)N2CCN(C3c4ccc(Cl)cc4CCc4cc(Br)cnc43)CC2)CC1 (centres unmarked) [Example 4],7.27,–,–,–,–
"N#CN=C(Oc1ccccc1)N1CCC(CC(=O)N2CCN(C3c4ccc(Cl)cc4CCc4cc(Br)cnc43)CC2)CC1 (centres unmarked) [Example 1, PHENYL 4-[2-[4-(3-BROMO-8-CHLORO-6,11-DIHYDRO-5H-BENZO[5,6]CYCLOHEPTA[1,2-b]PYRIDIN-11-YL]-1-PIPERAZINYL]-2-OXOETHYL]-N-CYANO-1-PIPERIDINE-CARBOXIMIDATE]",–,–,–,–,"FPT inhibition (column FPT IC50) ([1]; @ 0.3 μM, Table 2): 44%"
"N=C(NC(=O)NC(N)=O)N1CCC(CC(=O)N2CCN(C3c4ccc(Cl)cc4CCc4cc(Br)cnc43)CC2)CC1 (centres unmarked) [Example 14, N-[[(AMINOCARBONYL)AMINO]CARBONYL]-4-[2-[4-(3-BROMO-8-CHLORO-6,11-DIHYDRO-5H-BENZO[5,6]CYCLOHEPTA[1,2-b]-PYRIDIN-11-YL)-1-PIPERAZINYL]2-OXOETHYL]-1-PIPERIDINECARBOXIMIDAMIDE]",7.11,–,–,–,–

# Now from value to molecule, other results behind:
pIC50 ([1]; Table 2),pIC50 ([1]; Table 3),pIC50 (Human tumor cells; Homo sapiens),Structure (SMILES),pIC50 (COS Cell; Table 4),also measured
–,8.59,6.74,CC(=O)N1CCC(CC(=O)N2CCC([C@H]3c4ncc(Br)cc4CCc4cc(Cl)cc(Br)c43)CC2)CC1 [Compound 36.0-B],7.30,pIC50 (Human tumor cells): 6.77
–,8.49,6.51,NC(=O)Cn1cccc1C(=O)N1CCC(CC(=O)N2CCC([C@H]3c4ncc(Br)cc4CCc4cc(Cl)cc(Br)c43)CC2)CC1 [Compound 42.0-B],7.57,–
–,7.96,–,CC(C)(C)OC(=O)Cn1cccc1C(=O)N1CCC(CC(=O)N2CCC([C@H]3c4ncc(Br)cc4CCc4cc(Cl)cc(Br)c43)CC2)CC1 [Compound 61.0-B],–,–
–,8.07,7.00,O=C(CC1CCN(C(=O)c2ccoc2)CC1)N1CCC([C@H]2c3ncc(Br)cc3CCc3cc(Cl)cc(Br)c32)CC1 [Compound 84.0-B],7.96,–
–,8.42,6.70,CS(=O)(=O)n1cccc1C(=O)N1CCC(CC(=O)N2CCC([C@H]3c4ncc(Br)cc4CCc4cc(Cl)cc(Br)c43)CC2)CC1 [Compound 43.0-B],> 8.00,–
–,8.11,< 6.30,CCn1cccc1C(=O)N1CCC(CC(=O)N2CCC([C@H]3c4ncc(Br)cc4CCc4cc(Cl)cc(Br)c43)CC2)CC1 [Example 54],7.40,–
–,8.49,6.30,O=C(CC1CCN(C(=O)c2ncccc2O)CC1)N1CCC([C@H]2c3ncc(Br)cc3CCc3cc(Cl)cc(Br)c32)CC1 [Compound 83.0-B],7.92,–
–,8.68,< 6.30,O=C(CC1CCN(C(=O)c2cccnc2O)CC1)N1CCC([C@H]2c3ncc(Br)cc3CCc3cc(Cl)cc(Br)c32)CC1 [Compound 48.0-B],7.33,–
–,8.52,6.82,O=C(CC1CCN(C(=O)c2cn[nH]c2)CC1)N1CCC([C@H]2c3ncc(Br)cc3CCc3cc(Cl)cc(Br)c32)CC1 [Compound 31.0-B],8.15,–
